Tests used:
[1] = fetal sheep, cited from earlier work
[2] = system: rat Hippocampal Organotypic cultures exposed to NMDA; details: lower (1 μM) or higher (50-100 μM) concentrations reduced neuronal damage to a lesser extent; cited from earlier work
[3] = system: cerebellar microexplants (P4); test: Glutamate toxicity in P4 cerebellar microexplants and rescue by cPG; type: cell-based, Wistar rats
Description: Cerebellar Cell Culture Preparing and Coating of Cover Slips
Ten coverslips were placed into a large petri dish and washed in 70% alcohol for 5 minutes, then washed with Millipore H2O. The coverslips were air dried, then coated with Poly-D-Lysine (1 mg/ml stock solution in PBS, 90-100 μl) and incubated for 2 hours at 34 C.
Postnatal day 4 Wistar rats were used for the study. Rats were placed in ice for 1 minute, the heads were decapitated and the cerebellum removed on ice. […] The tissue was sieved through (125 μm pore size gaze) and centrifuged (2 minutes at 60 g) two times for a medium exchange into serum-free BSA-supplemented START V medium (Biochrom). The second centrifugation step was done with 1 ml of START V medium. The microexplants were reconstituted into 500 μl of START V medium and put on ice
Two hours after PDL-coating, the slides were washed with Millipore H2O and air dried. Each slide was placed into a small 35 mm petri dish and 40 μl of START V/cell suspension added. The tissue was incubated for 2 hours at 34 C (settlement period). START V-medium (1 ml) was then added to the petri dish and cultivated at 34 C/5% CO2/100% humidity for 48 hours. […] Finally, the microexplants were rinsed in PBS.
10 μl of toxin (L-glutamate-100 mM in Millipore water) was applied simultaneously with cPG (from bachem, 10 mM stock prepared in PBS and diluted to final concentrations between 1-100 nM) for Study 1. A delay in administration of cPG at 6 hours after glutamate treatment was performed for Study 2.

[4] = system: 6-OHDA induced nigral-striatal lesion; test: Apomorphine-induced rotations after 6-OHDA induced nigral-striatal lesion; type: in vivo, Wistar rats
Description: Twenty male Wistar rats (280-310 g) were used. After exposing the skull, 6-OHDA (8 μg in a base of 2 μl 0.9% saline containing 1% ascorbic acid) was administered into the right medial forebrain bundle (MFB) using co-ordinates AP +4.7 mm, R 1.6 mmv-8 mm under 3% halothane anaesthesia. 6-OHDA was injected through a 25 G needle connected via a polyethylene catheter to a 100 μl Hamilton syringe. The 6-OHDA was infused by a microdialysis infusion pump at a rate of 0.5 μl/min. The needle was left in the brain for a further 3 minutes before being slowly withdrawn. The skin was sutured with 2.0 silk and the rats were allowed to recover from anaesthesia. The rats were housed in a holding room with free access to food and water at all times except during behavioural testing.
Cyclic PG was dissolved in saline. Four different doses of cPG (0, 0.1 0.5 1 mg/kg, Bachem) were administered intraperitoneally 2 h post lesion.
At 7 days post-lesion, rats were injected with 0.1 mg/kg apomorphine and the number of contralateral rotations/hour was recorded and calculated using a computerised Rotameter (St Diego Instruments). Experimenter was blinded from the treatment groups.

In the case of insulin-like growth factor I [IGF-I], the “dose at which all the neuroprotective effects are lost” value ([1]; 1 μg more neuroprotective than 100 ng) is given as 10 µg and the “dose that usually killed the sheep fetus” value [1] is given as no less than 100 µg.
For glycine-proline-glutamate [GPE], the “concentration giving the highest degree of neuroprotection” value [2] is listed as 10 µM.
With `O=C1NCC(=O)N2CCC[C@@H]12` [cPG, cyclic Prolyl Glycine] the “neuron number compared to the normal control group” value ([3]; a further lower dose of cPG) was “significant increase”, the glutamate-induced neurotoxicity ([3]; given either immediately or 6 hours after the glutamate treatment) was “completely prevented” and the “number of contralateral rotations/hour” value ([4]; 1 mg cPG intraperitoneally 2 h post lesion, 7 days post-lesion, 0.1 mg/kg apomorphine, n=5, FIG. 5) was 154±64.1 rotations/hour. The “reduction of functional deficit (apomorphine induced rotations)” value ([4]; highest dose tested (1 mg/kg), ns) was 47%.
With `N[C@@H](CCC(=O)O)C(=O)O` [Glutamate, L-glutamate, reference compound] the “loss of cerebellum neurons” value ([3]; Study 1, glutamate treatment alone) was 85%.

Source: patent US7232798B2, “Neuroprotection and neuroegenisis by administering cyclic prolyl glycine” (priority 2001, dated 2007)
